The record followed here is patent publication US9157074B2, “Beta-amylase, gene coding therefor and manufacturing method thereof” (Amano Enzyme Inc., priority 2008, dated 2015).

“Also recorded” adds a separate entry of the source.

The subject of data set [1] is β-amylase. The data set can be described thus: Effect of metal ion and inhibitor on β-amylase activity. The following applies: 30° C., 30 minutes; for Relative activity: 1 mM metal ion or inhibitor, pH 5.0, not added = 100%; for effect on activity: 1 mM. Type of data set: biochemical, Bacillus flexus. How it is done:
(§1) The activity of β-amylase was measured as follows. To 0.5 ml of 0.1M phosphate-HCl buffer solution (pH 5.0) containing 1% soluble starch and 10 mM calcium acetate, 0.5 ml of enzyme solution was added. The mixture was incubated at 37° C. for 30 minutes. Then, 2.5 ml of DNS solution (0.2% DNS, 80 mM NaOH, 0.2 M potassium sodium tartrate tetrahydrate) was added to the mixture so as to stop the reaction. After the reaction was stopped, the reaction mixture was boiled for five minutes, the absorbance was measured at the wavelength of 530 nm. The enzyme amount when the absorbance measured at the wavelength of 530 nm is 1 is defined as one unit.
To β-amylase in 0.1 M acetic acid-hydrochloric acid buffer solution (pH 5.0) containing 10 mM calcium acetate, 1 mM of various metal ions or inhibitor were added, respectively, treated at 30° C. for 30 minutes, and then the activity was measured by the above-mentioned β-amylase activity. The values were shown as the relative activity when the metal ion and inhibitor were not added is defined as 100%. The activity was inhibited by Cu ion, iodine acetic acid, PCMB, and SDS.

Data set [2] deals with β-amylase. The data set can be described thus: Substrate specificity of β-amylase. Type of data set: biochemical, Bacillus flexus. To be noted: for Relative activity (%): activity with respect to soluble starch = 100%, oligosaccharides 0.5%, 0.1 u/ml enzyme, 37° C., 30 minutes, maltose by HPLC; for substrate specificity (words): relative to soluble starch = 100%. As to the method:
as §1
The β-amylase activity with respect to each substrate was examined. The values are shown as the relative activity when the activity with respect to soluble starch is defined as 100%. As to oligosaccharides, the production amount of maltose was examined by the below-mentioned quantification amount of maltose. After 0.1 u/ml enzyme was reacted to 0.5% of each maltooligosaccharide at 37° C. for 30 minutes, quantification of maltose was carried out by HPLC (Aminex carbohydrate HPX-42A, BIO-RAD). A production amount of maltose when the substrate is soluble starch is defined as 100%, the relative activity with respect to each maltooligosaccharide was calculated from the production amount of maltose.
The values were shown as the relative activity when a production amount of maltose with respect to soluble starch is defined as 100%.

Data set [3] is described as follows: Optimum reaction temperature of β-amylase. The following applies: pH 5.0, reaction temperatures 25 to 70° C. Type of data set: biochemical. As to the method:
as §1
According to the above-mentioned β-amylase activity measurement method, reaction was carried out at the reaction temperatures of 25° C., 37° C., 50° C., 55° C., 60° C., 65° C., and 70° C. […] The optimum reaction temperature was around 55° C. (FIG. 1).

Data set [4] in a line: Thermostability (remaining activity after heat treatment). Type of data set: physicochemical. As to the method:
as §1
The enzyme solution (20 u/ml) was subjected to heat treatment in 0.1 M acetic acid-hydrochloric acid buffer solution (pH 5.0) containing 10 mM calcium acetate at each temperature of 37° C., 50° C., 55° C., 60° C., 65° C. and 70° C. for 10 minutes, and then the remaining activity was measured by the above-mentioned β-amylase activity measurement method. The values are shown as the remaining activity when the remaining activity with no heat treatment is defined as 100%. […] (FIG. 3).

A further data set can be described thus: pH stability. Type of data set: physicochemical. To be noted: pH 4 to 9, 30° C., three hours. How it is done:
as §1
β-amylase was treated in each of the buffer solutions (citric acid buffer: pH2, pH3, and pH4, Britton-Robinson buffer: pH4, pH5, pH6, pH7, pH8, pH9, pH10, and pH11) at 30° C. for three house, and then the activity was measured by the above-mentioned β-amylase activity measurement method. […] The […] was 4 to 9 (FIG. 4).

A short description of data set [5]: Isoelectric point by isoelectric point precipitation using Ampholine. The following applies: 600V, 4° C., 48 hours. Type of data set: physicochemical. As to the method: When the isoelectric point of the present enzyme was measured by isoelectric point precipitation using Ampholine (electrification at 600V, at 4° C., for 48 hours), it was 9.7.
Data set [6] can be described thus: β-amylase specific activity at each purification stage. Type of data set: biochemical. How it is done:
as §1
Bacillus flexus APC9451 was cultured with shaking at 30° C. for three days by using a liquid medium having the compositions shown in Table 1. The obtained culture supernatant solution was four-times concentrated by using an UF membrane (AIP-0013, Asahi Kasei Corporation), and then ammonium sulfate was added thereto so as to obtain 60% saturation concentration. The precipitate fraction was dissolved again in 20 mM acetic acid buffer solution (pH 5.5). Then, to the mixture solution, ammonium sulfate was added so as to obtain 20% saturation concentration. […]

The nature of data set [7]: Optimum reaction pH of β-amylase. Format: biochemical. The following applies: 1% soluble starch, 37° C., 10 minutes; citric acid buffer pH2-4, Britton-Robinson buffer pH4-11. How it is done: For the substrate, 1% soluble starch was used, and the measurement was carried out in each buffer solution (citric acid buffer: pH2, pH3, and pH4, Britton-Robinson buffer: pH4, pH5, pH6, pH7, pH8, pH9, pH10, and pH11) at 37° C. for 10 minutes. […] The optimum reaction pH was about 8.0 (FIG. 2).

Turning to `[Cu+2]` [Cu^2+], in the data set with β-amylase [1], the Relative activity is on record as 46% and the “effect on activity” value is listed as “inhibited”.
In the case of Maltotriose, in the data set with β-amylase [2], the “Relative activity (%)” value worked out at 0% and the “substrate specificity (words)” value is “did not act; also recorded: does not substantially act”.
On to Maltoheptaose, for which, in the data set on β-amylase [2], the “Relative activity (%)” value is given as 111%.
On the same count and under the same terms, as for `OC[C@H]1O[C@H](O[C@H]2[C@H](O)[C@@H](O)[C@@H](O[C@H]3[C@H](O)[C@@H](O)[C@@H](O[C@H]4[C@H](O)[C@@H](O)C(O)O[C@@H]4CO)O[C@@H]3CO)O[C@@H]2CO)[C@H](O)[C@@H](O)[C@@H]1O` (stereo partly shown) [Maltotetraose], the figure is 75%.
On to `O=C(O)CI` [monoiodoacetic acid], for which, in the data set on β-amylase [1], the Relative activity worked out at 14% and the “effect on activity” value was “inhibited”.
The matching figures for `O=C(O)c1cc[c]([Hg][Cl])cc1` [PCMB]: 25% and “inhibited”.
For `[K+]` [K^+], in the data set with β-amylase [1], the Relative activity is on record as 96%.
As for cyclodextrin, the “substrate specificity (words)” value in the data set on β-amylase [2] is listed as “does not substantially act”; in the data set on β-amylase [2] (listed as Cyclodextrin), “almost broken down”.
As to `OC[C@H]1O[C@@H]2O[C@H]3[C@H](O)[C@@H](O)[C@@H](O[C@H]4[C@H](O)[C@@H](O)[C@@H](O[C@H]5[C@H](O)[C@@H](O)[C@@H](O[C@H]6[C@H](O)[C@@H](O)[C@@H](O[C@H]7[C@H](O)[C@@H](O)[C@@H](O[C@H]1[C@H](O)[C@H]2O)O[C@@H]7CO)O[C@@H]6CO)O[C@@H]5CO)O[C@@H]4CO)O[C@@H]3CO` [α-cyclodextrin], the “Relative activity (%)” value with β-amylase [2] is listed as 0%.
Consider `CCCCCCCCCCCCOS(=O)(=O)[O-].[Na+]` [SDS], for which, in the data set on β-amylase [1], the Relative activity is 37% and the “effect on activity” value is on record as “inhibited”.
Regarding `[Fe+2]` [Fe^2+], the Relative activity with β-amylase [1] was found to be 105%; in the data set on β-amylase [1] (listed as Fe^3+), 113%.
Turning to Maltopentaose, the “Relative activity (%)” value in the data set with β-amylase [2] came to 102%.
In the case of `[Mg+2]` [Mg^2+], the Relative activity in the data set with β-amylase [1] is listed as 103%.
Take `OC[C@H]1O[C@@H]2O[C@H]3[C@H](O)[C@@H](O)[C@@H](O[C@H]4[C@H](O)[C@@H](O)[C@@H](O[C@H]5[C@H](O)[C@@H](O)[C@@H](O[C@H]6[C@H](O)[C@@H](O)[C@@H](O[C@H]7[C@H](O)[C@@H](O)[C@@H](O[C@H]8[C@H](O)[C@@H](O)[C@@H](O[C@H]1[C@H](O)[C@H]2O)O[C@@H]8CO)O[C@@H]7CO)O[C@@H]6CO)O[C@@H]5CO)O[C@@H]4CO)O[C@@H]3CO` [β-cyclodextrin]: in the data set on β-amylase [2], the “Relative activity (%)” value is 1.4%.
With `CCN1C(=O)C=CC1=O` [N-ethylmaleimide], the Relative activity with β-amylase [1] amounted to 93%.
On the same count and under the same terms, as for `[Na+]` [Na^+], the figure is 88%.
For Maltohexaose, the “Relative activity (%)” value with β-amylase [2] is 131%.
In the case of `[Ca+2]` [Ca^2+], the Relative activity in the data set with β-amylase [1] came to 130%.
Consider `[Zn+2]` [Zn^2+], for which, in the data set on β-amylase [1], the Relative activity is recorded as 96%.
Turning to `[Mn+2]` [Mn^2+], the Relative activity in the data set on β-amylase [1] is recorded as 222%.
Consider `OC[C@H]1O[C@@H]2O[C@H]3[C@H](O)[C@@H](O)[C@@H](O[C@H]4[C@H](O)[C@@H](O)[C@@H](O[C@H]5[C@H](O)[C@@H](O)[C@@H](O[C@H]6[C@H](O)[C@@H](O)[C@@H](O[C@H]7[C@H](O)[C@@H](O)[C@@H](O[C@H]8[C@H](O)[C@@H](O)[C@@H](O[C@H]9[C@H](O)[C@@H](O)[C@@H](O[C@H]1[C@H](O)[C@H]2O)O[C@@H]9CO)O[C@@H]8CO)O[C@@H]7CO)O[C@@H]6CO)O[C@@H]5CO)O[C@@H]4CO)O[C@@H]3CO` [γ-cyclodextrin-, γ-cyclodextrin], for which the “Relative activity (%)” value in the data set with β-amylase [2] is recorded as 0.6%.

B1: β-amylase: purified β-amylase from Bacillus flexus APC9451, amino acid sequence SEQ ID NO: 7; final HiLoad 16/60 Superdex200 stage (protein, listed as Bacillus flexus)
chain: MYKPIKKFASLIVLLSFVAAFILGPTNSQAAVNGQSFNSNYKTYLMAPLKKVTEFTTWEAFENDLRKAKQNGFYAVTVDFWWGDMEKNGDQQFDFSYAQRFAQAARNAGIKMVPIISTHQCGGNVGDDCNTPLPSWIWNTKTDDSLYFKSETGTVNKETVNPLATDVITKQYGELYTAFAQALAPYKDVIPKVYLSGGPAGELRYPSYTAADGTGYPSRGKFQAYTDFAKSKFQMWAVNKYGSLAGVNQAWGLSLTSTSQILPPSDGNQFLKDGYNTNYGKDFLEWYQGVLQDHAKRIGALAHQAFDPVFNVPVGAKIAGIHWQYNNPTMPHAAEKPAGYNNYSTLLDSFKTAKLDLTFTCLEMVDSGTYPEYSMPKTLVKEVASLANAKGIVLNGENALSIGSEEQYKRAAEMTFNYNFAGFTLLRFYDVINNSTRMSQFNQHLNIKPVAQTMVVKNAPTSSGESVYIVGDRPELGQWDTIAYPIKLSYNSTYGDWRGTVNFPADRSVQFKAIIKRSDGSLKSWQPTQQYWNVPGTPTTYTNNW
Take B1: the optimum reaction temperature entry was “around 55 °C” in data set [3] and “about 55 °C” in data set [3] (listed as the present enzyme). Besides, in data set [4] (55° C., 10 minutes, 0.1 M acetic acid-hydrochloric acid buffer pH 5.0, 10 mM calcium acetate, no heat treatment = 100%), the “remaining activity after heat treatment” value is ≥ 90%. Besides, the “thermostability (temperature until which stable)” value in data set [4] (pH 5.0, 10 minutes) was ≤ 55 °C. In “pH stability”, the “activity with respect to the maximum activity after treatment” value is ≥ 70%. The molecule further registered an isoelectric point in data set [5] of 9.7. Moreover, in data set [6] (final purification stage vs crude enzyme), the “specific activity in the final stage as compared with that of the crude enzyme” value is on record as 2270 times. For the same molecule, in data set [6] (purification stage of β-amylase from Bacillus flexus APC9451), the Specific activity is given as 1569 u/mg. Further, the “optimum reaction pH” value in data set [7] was “about 8.0”.
